Source: the supplement of paper PMC10307832

Assays:
Assay in all cases: relative viability (nuclei count vs DMSO), 5 days (fraction); higher = more cells survive
[1] = compound: CN(C)CC1=CC(=CC=C1)N=C(C2=CC=CC=C2)C3=C(NC4=C3C=CC(=C4)C(=O)N(C)C)O + O=C(CCCCCCC(=O)Nc1ccccc1)NO [Vorinostat] (partner 1 µM)
Summary of the method: (§1)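 Relative viability equals treated-well nuclei counts divided by vehicle-well nuclei counts. Counts came from 4× images of lung cancer cell lines grown in 1536-well plates for 5 days after pin-tool dosing on the day after seeding. Dosing used one drug alone or a fixed anchor-drug dose plus five library-drug doses (not always all listed) in √10 steps, and values are medians of duplicate plates.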

[2] = compound: CN(C)CC1=CC(=CC=C1)N=C(C2=CC=CC=C2)C3=C(NC4=C3C=CC(=C4)C(=O)N(C)C)O + C[C@]1(O)C[C@@H](c2nc(-c3ccc4ccc(-c5ccccc5)nc4c3)c3c(N)nccn32)C1 [Linsitinib] (partner 1 µM)
Summary of the method: as §1

[3] = compound: CN(C)CC1=CC(=CC=C1)N=C(C2=CC=CC=C2)C3=C(NC4=C3C=CC(=C4)C(=O)N(C)C)O + CC1(C)CCC(c2ccc(Cl)cc2)=C(CN2CCN(c3ccc(C(=O)NS(=O)(=O)c4ccc(N[C@H](CCN5CCOCC5)CSc5ccccc5)c(S(=O)(=O)C(F)(F)F)c4)cc3)CC2)C1 [Navitoclax] (partner 0.5 µM)
Summary of the method: as §1

[4] = compound: CN(C)CC1=CC(=CC=C1)N=C(C2=CC=CC=C2)C3=C(NC4=C3C=CC(=C4)C(=O)N(C)C)O + Nc1nc2[nH]cc(CCc3ccc(C(=O)N[C@@H](CCC(=O)O)C(=O)O)cc3)c2c(=O)[nH]1 [Pemetrexed] (partner 0.2 µM)
Summary of the method: as §1

Cell Line	relative viability ([1]; first compound 0.08 µM)	relative viability ([1]; first compound 0.253 µM)	relative viability ([1]; first compound 0.8 µM)	relative viability ([1]; first compound 2.53 µM)	relative viability ([1]; first compound 8 µM)	relative viability ([2]; first compound 0.08 µM)	relative viability ([2]; first compound 0.253 µM)	relative viability ([2]; first compound 0.8 µM)	relative viability ([2]; first compound 2.53 µM)	relative viability ([2]; first compound 8 µM)	relative viability ([3]; first compound 0.08 µM)	relative viability ([3]; first compound 0.253 µM)	relative viability ([3]; first compound 0.8 µM)	relative viability ([3]; first compound 2.53 µM)	relative viability ([3]; first compound 8 µM)	relative viability ([4]; first compound 0.08 µM)	relative viability ([4]; first compound 0.253 µM)	relative viability ([4]; first compound 0.8 µM)	relative viability ([4]; first compound 2.53 µM)	relative viability ([4]; first compound 8 µM)
201T	0.988	0.961	0.908	0.946	0.879	1.07	1.06	0.937	1.04	0.927	1.2	1.23	1.14	1.17	1.18	0.355	0.382	0.347	0.331	0.315
A-427	0.887	0.86	0.89	0.872	0.873	1.08	1.1	1.13	1.01	1.06	0.96	0.961	1.01	0.92	0.964	1.06	0.993	1	0.955	0.926
ABC-1	1.34	1.21	1.1	0.895	1.14	0.773	0.965	0.709	0.728	0.73										
BEN	0.577	0.609	0.578	0.603	0.575	0.98	0.876	0.793	0.846	0.75	0.0778	0.06	0.0663	0.0535	0.0691	0.778	0.79	0.707	0.78	0.795
CAL-12T	0.989	0.715	0.808	0.93	0.82	0.779	0.838	0.799	0.771	0.841	1.11	1.32	1.21	0.963	1.25	1.17	1.22	1.14	1.34	1.25
COR-L23	0.539	0.44	0.468	0.407	0.396	1.06	0.889	1.07	0.878	0.759	1.02	1.07	1.07	0.77	0.791	0.205	0.2	0.193	0.196	0.19
COR-L 105	0.782	0.81	0.753	1.1	0.66	0.888	0.838	1.1	1.02	0.805	0.664	0.795	0.762	0.733	0.562	1.21	1.01	0.895	0.892	0.939
Calu-6						0.951	0.877	0.989	0.911	0.885	0.815	0.831	0.963	0.888	0.928					
ChaGo-K-1	0.753	0.737	0.795	0.738	0.777						1.16	1.17	1.27		1	0.251	0.267	0.259	0.258	0.265
EBC-1						1.02	0.964	1.05	1	1.08	0.459	0.411	0.539	0.522	0.518					
EKVX	0.778	0.726	0.648	0.858	0.773	1.1	0.925	1.05	1.06	1.07	0.908	0.82	0.956	0.885	1	0.41	0.362		0.396	0.418
EMC-BAC-2	0.476	0.548	0.463	0.463	0.653	0.884	0.797	0.778	0.787	0.717	1.13	1.15	1.17	1.18	1.1	0.437	0.445	0.582	0.435	0.508
EPLC-272H	0.426	0.519	0.402	0.49	0.315	1.21	1.11	0.937	1.15	0.934	1.35	1.08	0.913	1.14	1.11	0.355	0.345	0.284	0.314	0.398
H3255	0.826	0.987		0.777	0.845	0.881	0.959	0.924	0.954	1.03	0.608	0.457	0.514	0.545	0.552	0.592	0.52	0.543	0.592	0.592
HARA	0.6	0.528	0.433	0.715	0.487	0.965	1.04	0.865	0.921	0.715	1.14	1.14	1.18	1.15	1.13	0.214	0.234	0.203	0.291	0.228
HCC-15	0.875	0.821	0.787	0.868	0.89	0.869	0.849	0.976	0.974	0.805	0.708	0.705	0.726	0.731	0.667	0.232	0.22	0.208	0.235	0.226
HCC-44	1.18	1.09	1.2	1.1	1.29	0.67	0.683	0.641	0.613	0.664	0.948	0.95	0.942	0.995	0.994	0.691	0.583	0.693	0.598	0.716
HCC-78	0.455	0.668	0.379	0.464	0.427	0.62	0.452	0.475	0.535	0.511	0.894	0.734	0.807	0.75	0.769	0.639	0.873	0.857	0.918	0.859
HCC-366	0.471	0.369	0.458	0.299	0.473	0.737	0.602	0.657	0.473	0.354	0.969	1.03	1.07	1.07	0.901	0.141	0.17	0.265	0.164	0.25
HCC-827	0.861	0.803	0.801	0.867	0.815	0.984	0.944	1.03	0.925	0.937	1.04	1.02	1.06	1	0.941	0.266	0.241	0.25	0.229	0.269

Cell Line	relative viability ([1]; first compound 0.08 µM)	relative viability ([1]; first compound 0.253 µM)	relative viability ([1]; first compound 0.8 µM)	relative viability ([1]; first compound 2.53 µM)	relative viability ([1]; first compound 8 µM)	relative viability ([2]; first compound 0.08 µM)	relative viability ([2]; first compound 0.253 µM)	relative viability ([2]; first compound 0.8 µM)	relative viability ([2]; first compound 2.53 µM)	relative viability ([2]; first compound 8 µM)	relative viability ([3]; first compound 0.08 µM)	relative viability ([3]; first compound 0.253 µM)	relative viability ([3]; first compound 0.8 µM)	relative viability ([3]; first compound 2.53 µM)	relative viability ([3]; first compound 8 µM)	relative viability ([4]; first compound 0.08 µM)	relative viability ([4]; first compound 0.253 µM)	relative viability ([4]; first compound 0.8 µM)	relative viability ([4]; first compound 2.53 µM)	relative viability ([4]; first compound 8 µM)
HOP-62	0.624	0.659	0.643	0.7	0.46	1.11	1.08	0.99	1.1	1.16	1.05	0.94	1.03	1.04	0.977	0.264	0.248	0.438	0.344	0.322
IA-LM	0.911	0.848	0.903	0.958	1.02	0.666	0.645	0.773	0.767	0.544		0.848	0.766	0.915	1.02					
LC-2-ad	0.694	0.699	0.727	0.681	0.622	0.844	0.745	0.884	0.808	0.593	0.456	0.515	0.429	0.515	0.338	0.275	0.263	0.275	0.288	0.277
LCLC-97TM1	0.683	0.728	0.728	0.623	0.551	0.212	0.193	0.179	0.148	0.231	0.325	0.276	0.362	0.395	0.734	0.167	0.198	0.187	0.183	0.177
LCLC-103H	0.815	0.801	0.782	0.793	0.57	1.15	1.11	0.941	0.904	0.908						0.47	0.442	0.555	0.458	0.456
NCI-H358	0.73	0.629	0.585	0.582	0.482	0.779	0.715	0.673	0.621	0.464						0.176	0.173	0.165	0.164	0.175
NCI-H522	0.986	0.984	0.89	0.977	0.843											1.03	1.04	0.763	1.07	0.817
NCI-H650	0.452	0.553	0.557	0.418	0.395	0.854	0.965	0.952	0.83	0.767						0.933	1.14	1.15	0.979	0.831
NCI-H661	0.901	0.756	0.769	0.751	0.748	0.623	0.549	0.529	0.574	0.455						0.867	0.901	0.935	0.928	0.907
NCI-H727		0.972	1.35	1.45	1.23	0.253	0.349	0.197	0.281	0.24	0.574	0.428	0.371	0.471	0.498					
NCI-H1299						1.05	0.969	1.02	0.946	0.972	1.14	1.05	1.09	1.03	1.01					
NCI-H1563						1.19	1.28	1.15	1.08	1.14						0.829	0.665	0.782	0.741	0.698
NCI-H1648	0.518	0.585		0.512	0.446											0.717	0.758		0.739	0.668
NCI-H1650	0.619	0.698	0.444	0.546	0.652						1.23	1.16	1.3	1.15	1.08	0.34	0.353	0.344	0.373	0.39
NCI-H1703						0.625	0.781	0.701	0.61	0.192	1.07	1.17	1.1	0.717	0.222					
NCI-H1792						0.548	0.493	0.5	0.372	0.424	0.606	0.594	0.573	0.61	0.662	0.872	0.826	0.702	0.673	0.838
NCI-H2170	0.93	0.884	0.693	0.829	0.643						0.64	0.583	0.307	0.565	0.36	0.245	0.281	0.29	0.264	0.271
NCI-H2342	0.728	0.928	0.773	0.87	0.913											0.763	0.762	0.829	0.836	0.778
SW 900	0.56	0.495	0.452	0.606	0.606											0.439	0.495	0.497	0.535	0.445
